Reference: patent publication US12303587B2, “Extract of Moringa peregrina seed cake, method for obtaining same and use thereof in cosmetic or nutricosmetic compositions” (AGENCE FRANCAISE POUR LE DEVELOPPEMENT D'AL ULA, priority 2020, dated 2025)
In brackets after ≈: the same amount, converted by molar mass.

Tests used:
DKK-1 = DKK-1 synthesis and release, ELISA; type: cell-based, human; settings: tested at 100 nm; p<0.01
Experimental: The object of this study is to evaluate the effect of the compound known as “peregrina peptide hydrolyzate” on DKK-1 synthesis and release in a model composed of normal human fibroblasts in monolayer culture.
Protocol: Human fibroblast cells were obtained from a donor. To perform the experiments, the fibroblasts were grown as a monolayer culture until confluence was reached. 100 nM dexamethasone was used as a reference inducer of DKK-1 synthesis and release.
[…] were incubated for 48 hours in the absence (control) or presence of reference product or test product: Peregrina peptide hydrolyzate: 0.01%; 0.1% and 0.5% (v/v).
At the end of the incubation, the incubation media were removed to perform the DKK-1 release measurement.
The test compound “peregrina peptide hydrolyzate” was diluted directly in the incubation medium so as to reach the various concentrations described above.
At the end of the 48-hour incubation period, the DKK-1 released into the incubation media was quantified by means of a specific sensitive ELISA kit.
At the end of the incubation period, the proteins contained in the cell lyzates were quantified by means of a spectrocolorimetric method (Bradford method).
The results are expressed as ng DKK-1 per mg of protein (mean±S.D.).

[1] = system: mouse embryo fibroblasts of the Balb/c 3T3 clone 31 line; assay: In vitro phototoxicity test 3T3 NRU; type: cell-based; settings: BALB/c3T3, light or radiation study
Protocol: The cytotoxicity is evaluated by determining cell viability using a vital stain: neutral red, 24 hours after treatment with the reference elements and the extract of M. peregrina according to the invention with or without UVA irradiation. […] The positive control is a chlorpromazine solution (CAS No.: 69-09-0). The negative control is a diluent for the test extract and for the reference (buffered saline solution±1% solvent). The peptide hydrolyzate was tested at eight concentrations in at least four culture wells per concentration studied, in the presence or absence of UVA. […]
The seeded plates were incubated for 24 hours at 37° C. and 5% CO2. […] The pH of the highest concentration was measured; it was between 6.5 and 7.8. […] The spectral irradiance of the test device was measured in the wavelength range from 250 to 700 nanometers with a calibrated spectroradiometer.
One of the two plates was irradiated with its cover on at room temperature, and the other plate was protected from UVA and was maintained at room temperature during the irradiation. […] The next day, the cell viability (growth, morphology, monolayer integrity) was evaluated by observations using a phase-contrast microscope. […] The absorbance values were measured at 450 nm.

SMILES: C[C@@H]1C[C@H]2[C@@H]3CCC4=CC(=O)C=C[C@]4(C)[C@@]3(F)[C@@H](O)C[C@]2(C)[C@@]1(O)C(=O)CO [dexamethasone]
- increase of released DKK-1 relative to the control (DKK-1): 181.8%

SMILES: CN(C)CCCN1c2ccccc2Sc2ccc(Cl)cc21 [Chlorpromazine, chlorpromazine]
- IC50 ([1]; in the absence of UVA): 7 to 90 µg/mL (≈ 22 to 282 µM)
- IC50 ([1]; in the presence of UVA): 0.1 to 2 µg/mL
